Results from patent US11117900B2 (Vertex Pharmaceuticals Incorporated, priority 2012, dated 2021).

test system: HCT116 colorectal cancer cells; experiment: Cisplatin sensitization assay (96 h MTS cell viability); type: cell-based; conditions: Cisplatin sensitization value;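 further: compound concentration needed to lower the IC50 of Cisplatin alone by a set fold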
Method in brief: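 HCT116 cells were dosed simultaneously with compound and cisplatin as a full matrix of 2-fold serial dilutions from 10 μM top final concentration. Incubation was 96 h at 37° C., 5% CO2, followed by 1 h with MTS reagent for the viability read-out. Sensitization values were binned into +++, ++ and + categories.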

SMILES | Cisplatin Sensitization Assay
Nc1nn2cc(F)cnc2c1C(=O)Nc1cnccc1N1CCOCC1 [I-N-141, 2-amino-6-fluoro-N-(4-morpholinopyridin-3-yl)pyrazolo[1,5-a]pyrimidine-3-carboxamide] | +++ (Compounds with a Cisplatin sensitization value of <0.02 μM are marked with “+++.”)
CC(C)(C#N)c1cnc2c(C(=O)Nc3cnccc3N3CCN(C4COC4)CC3)c(N)nn2c1 [I-N-142, 2-amino-6-(2-cyanopropan-2-yl)-N-(4-(4-(oxetan-3-yl)piperazin-1-yl)pyridin-3-yl)pyrazolo[1,5-a]pyrimidine-3-carboxamide] | ++ (Compounds with a Cisplatin sensitization value >0.02 μM but <0.2 μM are marked with “++.”)
CC(C#N)c1cnc2c(C(=O)Nc3cnccc3N3CCN(C4COC4)CC3)c(N)nn2c1 (stereo not shown) [I-N-143, 2-amino-6-(1-cyanoethyl)-N-(4-(4-(oxetan-3-yl)piperazin-1-yl)pyridin-3-yl)pyrazolo[1,5-a]pyrimidine-3-carboxamide] | ++ (Compounds with a Cisplatin sensitization value >0.02 μM but <0.2 μM are marked with “++.”)
CC(C)(C#N)c1cnc2c(C(=O)Nc3cncc(F)c3N3CCN(C4COC4)CC3)c(N)nn2c1 [I-N-144] | +++ (Compounds with a Cisplatin sensitization value of <0.02 μM are marked with “+++.”)
CN(C)S(=O)(=O)C1CCN(c2c(F)cncc2NC(=O)c2c(N)nn3cc(F)cnc23)CC1 [I-N-146, 2-amino-N-(4-(4-(N,N-dimethylsulfamoyl)piperidin-1-yl)-5-fluoropyridin-3-yl)-6-fluoropyrazolo[1,5-a]pyrimidine-3-carboxamide] | +++ (Compounds with a Cisplatin sensitization value of <0.02 μM are marked with “+++.”)
Nc1nn2cc(F)cnc2c1C(=O)Nc1cncc(F)c1N1CCC(N2CCCC2=O)CC1 [I-N-147, 2-amino-6-fluoro-N-(5-fluoro-4-(4-(2-oxopyrrolidin-1-yl)piperidin-1-yl)pyridin-3-yl)pyrazolo[1,5-a]pyrimidine-3-carboxamide] | +++ (Compounds with a Cisplatin sensitization value of <0.02 μM are marked with “+++.”)
CN1CCC(N(C)S(=O)(=O)C2CCN(c3c(F)cncc3NC(=O)c3c(N)nn4cc(F)cnc34)CC2)CC1 [I-N-148, 2-amino-6-fluoro-N-(5-fluoro-4-(4-(N-methyl-N-(1-methylpiperidin-4-yl)sulfamoyl)piperidin-1-yl)pyridin-3-yl)pyrazolo[1,5-a]pyrimidine-3-carboxamide] | +++ (Compounds with a Cisplatin sensitization value of <0.02 μM are marked with “+++.”)
Nc1nn2cc(F)cnc2c1C(=O)Nc1cncc(F)c1N1CCC(CN2CCOCC2)CC1 [I-N-149, 2-amino-6-fluoro-N-(5-fluoro-4-(4-(morpholinomethyl)piperidin-1-yl)pyridin-3-yl)pyrazolo[1,5-a]pyrimidine-3-carboxamide] | +++ (Compounds with a Cisplatin sensitization value of <0.02 μM are marked with “+++.”)
CN1CCN(CC2CCN(c3c(F)cncc3NC(=O)c3c(N)nn4cc(F)cnc34)CC2)CC1 [I-N-150, 2-amino-6-fluoro-N-(5-fluoro-4-(4-((4-methylpiperazin-1-yl)methyl)piperidin-1-yl)pyridin-3-yl)pyrazolo[1,5-a]pyrimidine-3-carboxamide] | +++ (Compounds with a Cisplatin sensitization value of <0.02 μM are marked with “+++.”)
CN1CCN(C2CCN(c3c(F)cncc3NC(=O)c3c(N)nn4cc(F)cnc34)CC2)C(=O)C1 [I-N-151, 2-amino-6-fluoro-N-(5-fluoro-4-(4-(4-methyl-2-oxopiperazin-1-yl)piperidin-1-yl)pyridin-3-yl)pyrazolo[1,5-a]pyrimidine-3-carboxamide] | + (Compounds with a Cisplatin sensitization value >0.2 μM but <5 μM are marked with “+.”)
Nc1nn2cc(F)cnc2c1C(=O)Nc1cnccc1N1CCCCC1 [I-N-152, 2-amino-6-fluoro-N-(4-(piperidin-1-yl)pyridin-3-yl)pyrazolo[1,5-a]pyrimidine-3-carboxamide] | +++ (Compounds with a Cisplatin sensitization value of <0.02 μM are marked with “+++.”)
CN(C)CC(=O)N1CCN(c2c(F)cncc2NC(=O)c2c(N)nn3cc(F)cnc23)CC1 [I-N-153, 2-amino-N-(4-(4-(2-(dimethylamino)acetyl)piperazin-1-yl)-5-fluoropyridin-3-yl)-6-fluoropyrazolo[1,5-a]pyrimidine-3-carboxamide] | ++ (Compounds with a Cisplatin sensitization value >0.02 μM but <0.2 μM are marked with “++.”)
CN1CCC(OC2CCN(c3ccncc3NC(=O)c3c(N)nn4cc(F)cnc34)CC2)CC1 [I-N-154, 2-amino-6-fluoro-N-(4-(4-((1-methylpiperidin-4-yl)oxy)piperidin-1-yl)pyridin-3-yl)pyrazolo[1,5-a]pyrimidine-3-carboxamide] | +++ (Compounds with a Cisplatin sensitization value of <0.02 μM are marked with “+++.”)
Nc1nn2cc(F)cnc2c1C(=O)Nc1cncc(F)c1N1CCC(S(=O)(=O)N2CCOCC2)CC1 [I-N-155, 2-amino-6-fluoro-N-(5-fluoro-4-(4-(morpholinosulfonyl)piperidin-1-yl)pyridin-3-yl)pyrazolo[1,5-a]pyrimidine-3-carboxamide] | +++ (Compounds with a Cisplatin sensitization value of <0.02 μM are marked with “+++.”)
CN1CCC(C(=O)N2CCN(c3c(F)cncc3NC(=O)c3c(N)nn4cc(F)cnc34)CC2)C1 (stereo not shown) [I-N-156, 2-amino-6-fluoro-N-(5-fluoro-4-(4-(1-methylpyrrolidine-3-carbonyl)piperazin-1-yl)pyridin-3-yl)pyrazolo[1,5-a]pyrimidine-3-carboxamide] | +++ (Compounds with a Cisplatin sensitization value of <0.02 μM are marked with “+++.”)
CN1CCC[C@H]1C(=O)N1CCN(c2c(F)cncc2NC(=O)c2c(N)nn3cc(F)cnc23)CC1 [I-N-157, (S)-2-amino-6-fluoro-N-(5-fluoro-4-(4-(1-methylpyrrolidine-2-carbonyl)piperazin-1-yl)pyridin-3-yl)pyrazolo[1,5-a]pyrimidine-3-carboxamide] | ++ (Compounds with a Cisplatin sensitization value >0.02 μM but <0.2 μM are marked with “++.”)
Nc1nn2cc(F)cnc2c1C(=O)Nc1cncc(F)c1N1CCN(S(=O)(=O)C2CCOCC2)CC1 [I-N-158, 2-amino-6-fluoro-N-(5-fluoro-4-(4-((tetrahydro-2H-pyran-4-yl)sulfonyl)piperazin-1-yl)pyridin-3-yl)pyrazolo[1,5-a]pyrimidine-3-carboxamide] | +++ (Compounds with a Cisplatin sensitization value of <0.02 μM are marked with “+++.”)
Nc1nn2cc(F)cnc2c1C(=O)Nc1cncc(F)c1N1CCN(S(=O)(=O)C2CC2)CC1 [I-N-159, 2-amino-N-(4-(4-(cyclopropylsulfonyl)piperazin-1-yl)-5-fluoropyridin-3-yl)-6-fluoropyrazolo[1,5-a]pyrimidine-3-carboxamide] | +++ (Compounds with a Cisplatin sensitization value of <0.02 μM are marked with “+++.”)
Nc1nn2cc(F)cnc2c1C(=O)Nc1cncc(F)c1N1CCN(C(=O)CN2CCC2)CC1 [I-N-160, 2-amino-N-(4-(4-(2-(azetidin-1-yl)acetyl)piperazin-1-yl)-5-fluoropyridin-3-yl)-6-fluoropyrazolo[1,5-a]pyrimidine-3-carboxamide] | +++ (Compounds with a Cisplatin sensitization value of <0.02 μM are marked with “+++.”)
